One test deals with T1, sGC α1/β1 heterodimer (Homo sapiens, UniProt Q02108+Q02153).
T1 construct: expressed in transfected cells; host or cells: CHO-K1 (clone #7, CHO-K1/sGC)
T1 sequence (Q02108 1-690): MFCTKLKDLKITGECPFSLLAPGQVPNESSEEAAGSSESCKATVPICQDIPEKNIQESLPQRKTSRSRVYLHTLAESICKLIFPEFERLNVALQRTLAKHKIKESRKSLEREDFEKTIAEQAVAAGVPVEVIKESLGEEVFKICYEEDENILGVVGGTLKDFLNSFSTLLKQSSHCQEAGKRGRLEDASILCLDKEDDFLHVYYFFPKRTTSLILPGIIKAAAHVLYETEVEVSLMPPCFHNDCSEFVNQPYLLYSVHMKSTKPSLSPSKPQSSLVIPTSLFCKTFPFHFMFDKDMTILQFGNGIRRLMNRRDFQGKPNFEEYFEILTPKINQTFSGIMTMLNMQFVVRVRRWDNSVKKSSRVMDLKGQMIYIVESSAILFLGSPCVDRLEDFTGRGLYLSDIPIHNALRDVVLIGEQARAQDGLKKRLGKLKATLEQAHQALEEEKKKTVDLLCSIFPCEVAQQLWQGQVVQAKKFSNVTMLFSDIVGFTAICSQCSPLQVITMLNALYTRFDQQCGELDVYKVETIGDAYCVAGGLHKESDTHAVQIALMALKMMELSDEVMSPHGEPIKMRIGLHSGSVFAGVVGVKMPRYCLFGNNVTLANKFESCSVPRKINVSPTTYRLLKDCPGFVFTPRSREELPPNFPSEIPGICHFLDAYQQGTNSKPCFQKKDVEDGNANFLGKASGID
T1 sequence (Q02153 1-619): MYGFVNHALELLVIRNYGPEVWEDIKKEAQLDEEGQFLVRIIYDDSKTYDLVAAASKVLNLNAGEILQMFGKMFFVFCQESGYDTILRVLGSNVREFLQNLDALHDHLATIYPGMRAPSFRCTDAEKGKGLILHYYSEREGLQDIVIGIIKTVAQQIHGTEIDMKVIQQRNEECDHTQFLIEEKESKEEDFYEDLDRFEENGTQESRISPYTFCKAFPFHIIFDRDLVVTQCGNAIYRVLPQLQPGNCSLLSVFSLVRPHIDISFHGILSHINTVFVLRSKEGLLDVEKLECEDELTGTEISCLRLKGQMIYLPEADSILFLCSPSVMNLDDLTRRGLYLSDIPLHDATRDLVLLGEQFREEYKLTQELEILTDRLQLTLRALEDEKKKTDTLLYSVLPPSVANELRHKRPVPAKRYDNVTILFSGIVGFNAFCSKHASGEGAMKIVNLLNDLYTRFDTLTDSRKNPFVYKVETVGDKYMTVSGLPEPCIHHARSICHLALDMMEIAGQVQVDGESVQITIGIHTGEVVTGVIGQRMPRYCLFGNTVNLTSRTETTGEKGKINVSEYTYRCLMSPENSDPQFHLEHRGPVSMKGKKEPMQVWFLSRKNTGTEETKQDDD
Put plainly: Cell-based sGC functional assay (CASA assay): cGMP generation in CHO-K1/sGC cells, HTRF detection. The settings on record: for Emax: CHO-K1, percent activation relative to standard Compound A in CHO-K1/sGC cells, read-out: % Act.; for EC50: inflection point (IP) of cGMP generation in CHO-K1/sGC cells, 4P fit, activity expressed as percentage of Compound A; for % Act.: percent activation relative to standard Compound A in CHO-K1/sGC cells. In a few lines: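 cGMP was quantified by HTRF after 1 hr, 37° C exposure of thawed CHO-K1 cells expressing sGC α1/β1 to compound, with or without 1 μM DETA-NO. IBMX (0.5 mM) blocked cGMP breakdown, and DMSO was 2.5% final. Percent of standard Compound A's maximal cGMP was fitted (4P) for inflection point.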

The subject of test [1] is Spontaneously hypertensive rats (SHR). Put plainly: Acute efficacy in spontaneously hypertensive rats (SHR): telemetry blood pressure lowering after a single oral dose. The class given is in vivo, rat. From the text:
Acute Efficacy in Spontaneously Hypertensive Rats (SHR)
Spontaneously hypertensive rats (SHR, male, Charles River) were implanted with DSI TA11PA-C40 telemetry device (Data Sciences, Inc., St. Paul, Minn.) under isoflurane or ketamine/metomidine anesthesia. The telemetry unit catheter was inserted into the descending aorta via the femoral artery and the telemetry device was implanted subcutaneously in the left flank area. Animals were allowed to recover from surgery for 14 days before the start of any studies. Blood pressure, heart rate, and activity signals from conscious, freely moving rats were recorded continuously for 30 seconds every 10 minutes. On the day prior to administration of compound, a single oral dose of vehicle (10% transcutol/20% Cremophor/70% water) was administered to all animals to establish baseline control data. The blood pressure lowering efficacy of compound (PO) or vehicle was evaluated following a single oral gavage. Data were collected as hourly averages, and changes in blood pressure were calculated by subtracting control baseline data on an hourly basis. Animals were maintained on normal diet with a 12 hour light-dark cycle.
Maximum peak decreases of systolic blood pressure (SBP) in SHR at a particular P.O. dose (mpk milligrams per kilogram) for the following representative compounds are provided. Category A=SBP in SHRs<20 mmHg; Category B=SBP in SHRs 20-40 mmHg; Category C=SBP in SHRs>40 mmHg

As a reminder, the EC50 is the concentration at which the effect is half-maximal. The low end stands for an effect from little substance, the high end for a need for much substance.

For `Cc1nnc(C2(C)C(=O)Nc3nc(-c4cn5ccnc5c(Cc5ccc(F)cc5)n4)nc(N)c32)o1` (single isomer, unassigned) [Example 29A, 4-Amino-2-(8-(4-fluorobenzyl)imidazo[1,2-a]pyrazin-6-yl)-5-methyl-5-(5-methyl-1,3,4-oxadiazol-2-yl)-5H-pyrrolo[2,3-d]pyrimidin-6(7H)-one], on sGC α1/β1 heterodimer, the Emax stood at 102% and a half-maximal response (EC50) required 0.299 µM. For the same molecule, the “Maximum peak decrease of systolic blood pressure (SBP) in SHR, Cat.” value (“Maximum peak decrease” for short) in test [1] (P.O. 3.0 mpk) is listed as “B (Category B=SBP in SHRs 20-40 mmHg)”.

As for `CCc1nnc(C2(C3CC3)C(=O)Nc3nc(-c4cn5ccnc5c(CCC(F)(F)C(F)(F)F)n4)nc(N)c32)s1` (single isomer, unassigned) [Example 30A, 4-Amino-5-cyclopropyl-5-(5-ethyl-1,3,4-thiadiazol-2-yl)-2-(8-(3,3,4,4,4-pentafluorobutyl)imidazo[1,2-a]pyrazin-6-yl)-5H-pyrrolo[2,3-d]pyrimidin-6(7H)-one], on sGC α1/β1 heterodimer, the Emax worked out at 113% and a half-maximal response (EC50) required 0.358 µM. Moreover, the “Maximum peak decrease” value in test [1] (P.O. 3.0 mpk) is reported as “C (Category C=SBP in SHRs>40 mmHg)”.

For `Nc1nc(-c2cn3ccnc3c(Cc3cccc(F)c3)n2)nc2c1C(C(=O)NC1CC1)(C1CC1)C(=O)N2` (single isomer, unassigned) [Example 38B, 4-amino-N,5-dicyclopropyl-2-(8-(3-fluorobenzyl)imidazo[1,2-a]pyrazin-6-yl)-6-oxo-6,7-dihydro-5H-pyrrolo[2,3-d]pyrimidine-5-carboxamide], on sGC α1/β1 heterodimer, a half-maximal response (EC50) required 0.007 µM and the “% Act.” value worked out at 103%. The “Maximum peak decrease” value in test [1] (P.O. 0.3 mpk) is “B (Category B=SBP in SHRs 20-40 mmHg)”.

As for `Nc1nc(-c2cn3ccnc3c(CCC(F)(F)C(F)(F)F)n2)nc2c1C(C(=O)NC1CC1)(C1CC1)C(=O)N2` (single isomer, unassigned) [Example 61A, 4-amino-N,5-dicyclopropyl-6-oxo-2-(8-(3,3,4,4,4-pentafluorobutyl)imidazo[1,2-a]pyrazin-6-yl)-6,7-dihydro-5H-pyrrolo[2,3-d]pyrimidine-5-carboxamide], at sGC α1/β1 heterodimer, the Emax amounted to 95% and the midpoint of the response, the EC50, lay at 0.424 µM. Moreover, in test [1] (P.O. 3.0 mpk), the “Maximum peak decrease” value was “B (Category B=SBP in SHRs 20-40 mmHg)”.

Regarding `CC1(c2ccc(F)cc2)C(=O)Nc2nc(-c3cn4ccnc4c(CCC(F)(F)C(F)(F)F)n3)nc(N)c21` (single isomer, unassigned) [Example 68A, 4-Amino-5-(4-fluorophenyl)-5-methyl-2-(8-(3,3,4,4,4-pentafluorobutyl)imidazo[1,2-a]pyrazin-6-yl)-5H-pyrrolo[2,3-d]pyrimidin-6(7H)-one], on sGC α1/β1 heterodimer, the half-maximal effective concentration (EC50) came to 0.037 µM and the “% Act.” value amounted to 112%. The “Maximum peak decrease” value in test [1] (P.O. 0.3 mpk) is given as “C (Category C=SBP in SHRs>40 mmHg)”.

For the molecule `CC1(c2ccc(F)cc2)C(=O)Nc2nc(-c3cn4ccnc4c(Cc4cccc(F)c4)n3)nc(N)c21` (single isomer, unassigned) [Example 90A, 4-amino-2-(8-(3-fluorobenzyl)imidazo[1,2-a]pyrazin-6-yl)-5-(4-fluorophenyl)-5-methyl-5H-pyrrolo[2,3-d]pyrimidin-6(7H)-one], on sGC α1/β1 heterodimer, the Emax turned out to be 122% and the response was half-maximal at 0.032 µM (EC50). For the same molecule, the “Maximum peak decrease” value in test [1] (P.O. 0.3 mpk) was “C (Category C=SBP in SHRs>40 mmHg)”.

On to `CC1(c2ccc(F)cc2)C(=O)Nc2nc(-c3cn4ccnc4c(CCC(F)(F)C(F)(F)F)n3)nc(N)c21` (single isomer, unassigned) [Example 222B, 4-amino-5-(4-fluorophenyl)-5-methyl-2-(8-(3,3,4,4,4-pentafluorobutyl)imidazo [1,2-a]pyrazin-6-yl)-5H-pyrrolo[2,3-d]pyrimidin-6(7H)-one], for which, at sGC α1/β1 heterodimer, the Emax stood at 121% and the EC50 was 0.578 µM. The “Maximum peak decrease” value in test [1] (P.O. 3.0 mpk) is reported as “B (Category B=SBP in SHRs 20-40 mmHg)”.

Take `Nc1nc(-c2cn3ccnc3c(CCC(F)(F)F)n2)nc2c1C(c1ccc(Cl)cn1)(C1CC1)C(=O)N2` (single isomer, unassigned) [Example 331B, 4-amino-5-(5-chloropyridin-2-yl)-5-cyclopropyl-2-(8-(3,3,3-trifluoropropyl)imidazo[1,2-a]pyrazin-6-yl)-5H-pyrrolo[2,3-d]pyrimidin-6(7H)-one]: at sGC α1/β1 heterodimer, the Emax was found to be 157% and the EC50 is 1.31 µM. Besides, in test [1] (P.O. 3.0 mpk), the “Maximum peak decrease” value is reported as “B (Category B=SBP in SHRs 20-40 mmHg)”.

In the case of `CC1(c2noc(C3CC3)n2)C(=O)Nc2nc(-c3cn4ccnc4c(CCC(F)(F)C(F)(F)F)n3)nc(N)c21` (single isomer, unassigned) [Example 333B, 4-amino-5-(5-cyclopropyl-1,2,4-oxadiazol-3-yl)-5-methyl-2-(8-(3,3,4,4,4-pentafluorobutyl)imidazo[1,2-a]pyrazin-6-yl)-5H-pyrrolo[2,3-d]pyrimidin-6(7H)-one], on sGC α1/β1 heterodimer, the Emax amounted to 81% and the EC50 is 0.084 µM. For the same molecule, the “Maximum peak decrease” value in test [1] (P.O. 2.0 mpk) is listed as “B (Category B=SBP in SHRs 20-40 mmHg)”.

As to `Cc1cnc(C2(C3CC3)C(=O)Nc3nc(-c4cn5ccnc5c(CCC(F)(F)C(F)(F)F)n4)nc(N)c32)cn1` (single isomer, unassigned) [Example 342B, 4-amino-5-cyclopropyl-5-(5-methylpyrazin-2-yl)-2-(8-(3,3,4,4,4-pentafluorobutyl)imidazo[1,2-a]pyrazin-6-yl)-5H-pyrrolo[2,3-d]pyrimidin-6(7H)-one], at sGC α1/β1 heterodimer, the Emax was 177% and the response was half-maximal at 0.695 µM (EC50). In test [1] (P.O. 1.0 mpk), the “Maximum peak decrease” value is listed as “A (Category A=SBP in SHRs<20 mmHg)”.

For `Nc1nc(-c2cn3ccnc3c(CCC(F)(F)C(F)(F)F)n2)nc2c1C(c1ccc(F)cc1)(C1CCC1)C(=O)N2` (single isomer, unassigned) [Example 344B, 4-amino-5-cyclobutyl-5-(4-fluorophenyl)-2-(8-(3,3,4,4,4-pentafluorobutyl)imidazo[1,2-a]pyrazin-6-yl)-5H-pyrrolo[2,3-d]pyrimidin-6(7H)-one], on sGC α1/β1 heterodimer, the Emax is 163% and the EC50 turned out to be 0.051 µM. In addition, the “Maximum peak decrease” value in test [1] (P.O. 0.3 mpk) is listed as “A (Category A=SBP in SHRs<20 mmHg)”.

`Nc1nc(-c2cn3ccnc3c(CCC(F)(F)F)n2)nc2c1C(c1ccc(F)cc1)(C1CCC1)C(=O)N2` (single isomer, unassigned) [Example 345B, 4-amino-5-cyclobutyl-5-(4-fluorophenyl)-2-(8-(3,3,3-trifluoropropyl)imidazo[1,2-a]pyrazin-6-yl)-5H-pyrrolo[2,3-d]pyrimidin-6(7H)-one]: at sGC α1/β1 heterodimer, the Emax came out at 148% and the EC50 is 0.949 µM. Besides, in test [1] (P.O. 3.0 mpk), the “Maximum peak decrease” value is “A (Category A=SBP in SHRs<20 mmHg)”.

(Values after patent publication US9796733B2, “Imidazo-pyrazine derivatives useful as soluble guanylate cyclase activators” (Merck Sharp & Dohme Corp., priority 2014, dated 2017).)
